Measured values taken from PubChem BioAssay AID1963433 (Molecular Pharmacology Branch, DTP, NCI, 2024).

Test system: 772245-204-R-J1-PDC complex spheroid growth
Assay: Anticancer human tumor 772245-204-R-J1-PDC patient-derived rhabdomyosarcoma cell line growth inhibition [Asc]
Conditions: for IC50: curve of first compound; for viability, T/C: stronger effect = lower value
Procedure, shortened: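 Tumor cells were grown as multicellular spheroids with stromal HUVEC and mesenchymal stem cells and treated singly or in combination. Concentrations fell in half-log steps from the clinical Cmax, or from 10 microM where none was known.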

[1] = second compound 0.03 µM, first compound 0.0316 µM
[2] = second compound 0.03 µM, first compound 0.1 µM
[3] = second compound 0.03 µM, first compound 0.316 µM
[4] = second compound 0.03 µM, first compound 1 µM
[5] = second compound 0.0949 µM, first compound 0.0316 µM
[6] = second compound 0.0949 µM, first compound 0.1 µM
[7] = second compound 0.0949 µM, first compound 0.316 µM
[8] = second compound 0.0949 µM, first compound 1 µM
[9] = second compound 0.3 µM, first compound 0.0316 µM
[10] = second compound 0.3 µM, first compound 0.1 µM
[11] = second compound 0.3 µM, first compound 0.316 µM
[12] = second compound 0.3 µM, first compound 1 µM
[13] = second compound 0.949 µM, first compound 0.0316 µM
[14] = second compound 0.949 µM, first compound 0.1 µM
[15] = second compound 0.949 µM, first compound 0.316 µM
[16] = second compound 0.949 µM, first compound 1 µM
[17] = second compound 3 µM, first compound 0.0316 µM
[18] = second compound 3 µM, first compound 0.1 µM
[19] = second compound 3 µM, first compound 0.316 µM
[20] = second compound 3 µM, first compound 1 µM
[21] = second compound 0.1 µM, first compound 0.00316 µM
[22] = second compound 0.1 µM, first compound 0.01 µM
[23] = second compound 0.1 µM, first compound 0.0316 µM
[24] = second compound 0.1 µM, first compound 0.1 µM
[25] = second compound 0.1 µM, first compound 0.316 µM
[26] = second compound 0.1 µM, first compound 1 µM
[27] = second compound 0.316 µM, first compound 0.00316 µM
[28] = second compound 0.316 µM, first compound 0.01 µM
[29] = second compound 0.316 µM, first compound 0.0316 µM
[30] = second compound 0.316 µM, first compound 0.1 µM
[31] = second compound 0.316 µM, first compound 0.316 µM
[32] = second compound 0.316 µM, first compound 1 µM
[33] = second compound 1 µM, first compound 0.00316 µM
[34] = second compound 1 µM, first compound 0.01 µM
[35] = second compound 1 µM, first compound 0.0316 µM
[36] = second compound 1 µM, first compound 0.1 µM
[37] = second compound 1 µM, first compound 0.316 µM
[38] = second compound 1 µM, first compound 1 µM
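Also: compound exposure lasted seven days.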
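For viability, T/C in this document: 100% = DMSO vehicle control viability.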

C=CC(=O)N1CCN(c2nc(=O)n(-c3c(C)ccnc3C(C)C)c3nc(-c4c(O)cccc4F)c(F)cc23)C(C)C1 (stereo not given) + CCN1C(C(=O)NC23CCC(C(=O)O)(CC2)CC3)C(c2cccc(Cl)c2F)C2(C(=O)Nc3cc(Cl)ccc32)C12CCCCC2
IC50 (second compound 0.03 µM): > 10000 nM
IC50 (second compound 0.0949 µM): > 10000 nM
IC50 (second compound 0.3 µM): > 10000 nM
IC50 (second compound 0.949 µM): > 10000 nM
IC50 (second compound 3 µM): > 10000 nM
viability, T/C [1]: 105%
viability, T/C [2]: 102%
viability, T/C [3]: 94.9%
viability, T/C [4]: 113%
viability, T/C (second compound 0.03 µM, first compound 3.16 µM): 110%
viability, T/C (second compound 0.03 µM, first compound 10 µM): 86.4%
viability, T/C [5]: 112%
viability, T/C [6]: 104%
viability, T/C [7]: 103%
viability, T/C [8]: 102%
viability, T/C (second compound 0.0949 µM, first compound 3.16 µM): 106%
viability, T/C (second compound 0.0949 µM, first compound 10 µM): 103%
viability, T/C [9]: 104%
viability, T/C [10]: 111%
viability, T/C [11]: 113%
viability, T/C [12]: 113%
viability, T/C (second compound 0.3 µM, first compound 3.16 µM): 113%
viability, T/C (second compound 0.3 µM, first compound 10 µM): 93.8%
viability, T/C [13]: 111%
viability, T/C [14]: 94.8%
viability, T/C [15]: 99.5%
viability, T/C [16]: 105%
viability, T/C (second compound 0.949 µM, first compound 3.16 µM): 104%
viability, T/C (second compound 0.949 µM, first compound 10 µM): 79.3%
viability, T/C [17]: 81.9%
viability, T/C [18]: 85.7%
viability, T/C [19]: 74%
viability, T/C [20]: 77%
viability, T/C (second compound 3 µM, first compound 3.16 µM): 75.2%
viability, T/C (second compound 3 µM, first compound 10 µM): 60.8%

O=C(c1ccc(F)c(F)c1Nc1ccc(I)cc1F)N1CC(O)([C@@H]2CCCCN2)C1 + CCN1C(C(=O)NC23CCC(C(=O)O)(CC2)CC3)C(c2cccc(Cl)c2F)C2(C(=O)Nc3cc(Cl)ccc32)C12CCCCC2
IC50 (second compound 0.03 µM): > 1000 nM
IC50 (second compound 0.0949 µM): > 1000 nM
IC50 (second compound 0.3 µM): > 1000 nM
IC50 (second compound 0.949 µM): > 1000 nM
IC50 (second compound 3 µM): > 1000 nM
viability, T/C (second compound 0.03 µM, first compound 0.00316 µM): 115%
viability, T/C (second compound 0.03 µM, first compound 0.01 µM): 109%
viability, T/C [1]: 108%
viability, T/C [2]: 112%
viability, T/C [3]: 100%
viability, T/C [4]: 50.8%
viability, T/C (second compound 0.0949 µM, first compound 0.00316 µM): 113%
viability, T/C (second compound 0.0949 µM, first compound 0.01 µM): 91.5%
viability, T/C [5]: 108%
viability, T/C [6]: 105%
viability, T/C [7]: 115%
viability, T/C [8]: 70.6%
viability, T/C (second compound 0.3 µM, first compound 0.00316 µM): 102%
viability, T/C (second compound 0.3 µM, first compound 0.01 µM): 121%
viability, T/C [9]: 98.6%
viability, T/C [10]: 106%
viability, T/C [11]: 106%
viability, T/C [12]: 73.9%
viability, T/C (second compound 0.949 µM, first compound 0.00316 µM): 110%
viability, T/C (second compound 0.949 µM, first compound 0.01 µM): 109%
viability, T/C [13]: 115%
viability, T/C [14]: 98.5%
viability, T/C [15]: 105%
viability, T/C [16]: 62.3%
viability, T/C (second compound 3 µM, first compound 0.00316 µM): 90.9%
viability, T/C (second compound 3 µM, first compound 0.01 µM): 87.1%
viability, T/C [17]: 85.1%
viability, T/C [18]: 100%
viability, T/C [19]: 88.5%
viability, T/C [20]: 53.3%

COc1c(OCCCN2CCOCC2)ccc2c3n(c(=NC(=O)c4cnc(N)nc4)nc12)CCN3 + CNC(C)C(=O)NC1CN(S(=O)(=O)c2cccc(S(=O)(=O)N3CCC4CCC(C(=O)NC(c5ccccc5)c5ccccc5)N4C(=O)C(NC(=O)C(C)NC)C3)c2)CCC2CCC(C(=O)NC(c3ccccc3)c3ccccc3)N2C1=O
IC50 (second compound 0.01 µM): 193 nM
IC50 (second compound 0.0316 µM): 89.5 nM
IC50 (second compound 0.1 µM): 114 nM
IC50 (second compound 0.316 µM): 72.6 nM
IC50 (second compound 1 µM): 111 nM
viability, T/C (second compound 0.01 µM, first compound 0.00316 µM): 108%
viability, T/C (second compound 0.01 µM, first compound 0.01 µM): 95.2%
viability, T/C (second compound 0.01 µM, first compound 0.0316 µM): 81.7%
viability, T/C (second compound 0.01 µM, first compound 0.1 µM): 64.3%
viability, T/C (second compound 0.01 µM, first compound 0.316 µM): 38.4%
viability, T/C (second compound 0.01 µM, first compound 1 µM): 26.9%
viability, T/C (second compound 0.0316 µM, first compound 0.00316 µM): 93.7%
viability, T/C (second compound 0.0316 µM, first compound 0.01 µM): 112%
viability, T/C (second compound 0.0316 µM, first compound 0.0316 µM): 78.2%
viability, T/C (second compound 0.0316 µM, first compound 0.1 µM): 47.9%
viability, T/C (second compound 0.0316 µM, first compound 0.316 µM): 38.8%
viability, T/C (second compound 0.0316 µM, first compound 1 µM): 27.2%
viability, T/C [21]: 97.4%
viability, T/C [22]: 97.2%
viability, T/C [23]: 68.1%
viability, T/C [24]: 53.8%
viability, T/C [25]: 35.4%
viability, T/C [26]: 23.2%
viability, T/C [27]: 92.9%
viability, T/C [28]: 93.8%
viability, T/C [29]: 73.4%
viability, T/C [30]: 40.1%
viability, T/C [31]: 30.7%
viability, T/C [32]: 22%
viability, T/C [33]: 86%
viability, T/C [34]: 96.6%
viability, T/C [35]: 75.7%
viability, T/C [36]: 51.3%
viability, T/C [37]: 32.5%
viability, T/C [38]: 21.6%

CCN1CCN(Cc2ccc(Nc3ncc(F)c(-c4cc(F)c5nc(C)n(C(C)C)c5c4)n3)nc2)CC1 + Cc1c(S(C)(=O)=O)c(-c2cc(F)cc(N3CCN(c4ccc(NS(=O)(=O)c5ccc(NC(CCN6CCC(C(=O)OCCCP(=O)(O)O)CC6)CSc6ccccc6)c(S(=O)(=O)C(F)(F)F)c5)cc4)CC3)c2)c(-c2ccc(Cl)cc2)n1C(C)C
IC50 (second compound 0.1 µM): > 1000 nM
IC50 (second compound 0.316 µM): 436 nM
IC50 (second compound 1 µM): 23.9 nM
IC50 (second compound 3.16 µM): < 3.16 nM
IC50 (second compound 10 µM): < 3.16 nM
viability, T/C [21]: 77.4%
viability, T/C [22]: 78.2%
viability, T/C [23]: 77.3%
viability, T/C [24]: 82.1%
viability, T/C [25]: 83.4%
viability, T/C [26]: 74.7%
viability, T/C [27]: 68.9%
viability, T/C [28]: 58.1%
viability, T/C [29]: 60.5%
viability, T/C [30]: 58.5%
viability, T/C [31]: 51.7%
viability, T/C [32]: 45.5%
viability, T/C [33]: 53.9%
viability, T/C [34]: 52.9%
viability, T/C [35]: 50%
viability, T/C [36]: 37.7%
viability, T/C [37]: 22.8%
viability, T/C [38]: 9.85%
viability, T/C (second compound 3.16 µM, first compound 0.00316 µM): 49%
viability, T/C (second compound 3.16 µM, first compound 0.01 µM): 42.5%
viability, T/C (second compound 3.16 µM, first compound 0.0316 µM): 42%
viability, T/C (second compound 3.16 µM, first compound 0.1 µM): 32.6%
viability, T/C (second compound 3.16 µM, first compound 0.316 µM): 15.1%
viability, T/C (second compound 3.16 µM, first compound 1 µM): 5.17%
viability, T/C (second compound 10 µM, first compound 0.00316 µM): 49.7%
viability, T/C (second compound 10 µM, first compound 0.01 µM): 42.3%
viability, T/C (second compound 10 µM, first compound 0.0316 µM): 41%
viability, T/C (second compound 10 µM, first compound 0.1 µM): 29.9%
viability, T/C (second compound 10 µM, first compound 0.316 µM): 15.5%
viability, T/C (second compound 10 µM, first compound 1 µM): 3.23%
